Assay results as given in patent US20060140885A1, “Method of reducing oral tissue inflammation using magnolia extract” (priority 2004, published 2006).

System: S. mutans
Test: Minimal Inhibitory Concentration (MIC) in vitro test against S. mutans
Format: cell-based
Source text: The compositions of the present invention comprise an extract of magnolia. As referred to here, such an “extract” of magnolia is an extract from dried cortex, or bark, of a plant from the Magnoliaceae family, such as Magnolia officinalis, (hereinafter “magnolia”) or a synthetic or semi-synthetic equivalent of such an extract or an active component or compound thereof. […] It should be noted that any plant from the Magnoliaceae family is suitable for the present invention and may be used in alternate embodiments, preferably such that the extract comprises an antimicrobially effective concentration of a compound selected from the group consisting of magnolol, honokiol, tetrahydromagnolol, tetrahydrohonokiol, and mixtures thereof.

Row | Compound | bactericidal properties against S. mutans (MIC test)
1 | C=CCc1ccc(O)c(-c2ccc(O)c(CC=C)c2)c1 [honokiol] | bactericidal properties
2 | C=CCc1ccc(O)c(-c2cc(CC=C)ccc2O)c1 [magnolol] | bactericidal properties
3 | CCCc1ccc(O)c(-c2ccc(O)c(CCC)c2)c1 [tetrahydrohonokiol] | bactericidal properties
4 | CCCc1ccc(O)c(-c2cc(CCC)ccc2O)c1 [tetrahydromagnolol] | bactericidal properties
